Reference: ChEMBL document CHEMBL4699540, “Discovery and structure activity relationships of 7-benzyl triazolopyridines as stable, selective, and reversible inhibitors of myeloperoxidase” (Bioorg Med Chem, 2020)

Assays:
[1] = Binding affinity to human neutrophil MPO delta (1-95) measured for 5 mins by SPR assay
[2] = biological target: T1, Methylated-DNA--protein-cysteine methyltransferase (Homo sapiens, UniProt P16455); assay: Inhibition of human MGMT using 06-benzylguanine as substrate incubated for 30 mins by LC/MS analysis; settings: 0.5 h
T1 sequence (P16455 whole entry): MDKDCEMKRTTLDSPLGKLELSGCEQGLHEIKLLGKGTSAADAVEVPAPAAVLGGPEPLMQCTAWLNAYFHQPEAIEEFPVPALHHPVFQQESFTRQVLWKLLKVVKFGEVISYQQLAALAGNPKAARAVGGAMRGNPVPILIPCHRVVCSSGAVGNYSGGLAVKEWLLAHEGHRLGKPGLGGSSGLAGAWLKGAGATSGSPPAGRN

[3] = Permeability of compound at pH 5.5 by PAMPA assay; assay type: ADME; settings: read-out: permeability
Thyroid peroxidase = biological target: T2, Thyroid peroxidase (Homo sapiens, UniProt P07202); assay: Inhibition of TPO (unknown origin) using 3-iodo tyrosine as substrate incubated for 10 mins
T2 sequence (P07202 whole entry): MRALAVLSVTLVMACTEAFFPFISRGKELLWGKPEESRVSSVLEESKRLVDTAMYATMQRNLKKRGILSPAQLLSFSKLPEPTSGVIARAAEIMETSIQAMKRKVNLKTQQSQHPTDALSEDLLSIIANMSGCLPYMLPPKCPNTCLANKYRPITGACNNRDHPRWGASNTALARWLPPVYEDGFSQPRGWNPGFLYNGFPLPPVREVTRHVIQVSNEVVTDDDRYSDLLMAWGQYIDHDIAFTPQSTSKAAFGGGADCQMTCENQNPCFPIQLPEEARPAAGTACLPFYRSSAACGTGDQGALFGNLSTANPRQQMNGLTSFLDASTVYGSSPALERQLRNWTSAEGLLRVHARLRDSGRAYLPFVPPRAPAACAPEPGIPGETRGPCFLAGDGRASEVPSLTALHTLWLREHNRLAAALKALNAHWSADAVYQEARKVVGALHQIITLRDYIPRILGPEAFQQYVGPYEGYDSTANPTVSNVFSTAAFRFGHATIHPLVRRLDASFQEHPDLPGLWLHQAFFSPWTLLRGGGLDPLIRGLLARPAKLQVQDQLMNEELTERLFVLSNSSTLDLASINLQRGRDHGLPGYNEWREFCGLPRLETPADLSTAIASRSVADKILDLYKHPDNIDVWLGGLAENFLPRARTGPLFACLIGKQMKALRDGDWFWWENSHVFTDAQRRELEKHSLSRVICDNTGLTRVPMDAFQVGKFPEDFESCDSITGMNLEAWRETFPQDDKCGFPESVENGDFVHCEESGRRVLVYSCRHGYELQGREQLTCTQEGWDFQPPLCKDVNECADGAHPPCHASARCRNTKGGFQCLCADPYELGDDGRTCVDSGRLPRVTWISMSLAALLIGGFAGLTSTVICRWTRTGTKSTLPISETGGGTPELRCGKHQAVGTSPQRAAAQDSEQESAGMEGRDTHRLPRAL

Myeloperoxidase = biological target: T3, Myeloperoxidase (Mus musculus, UniProt P11247); assay: Inhibition of PMA-induced MPO in mouse Neutrophil incubated for 3 mins by luminometry; assay type: tissue-based
T3 sequence (P11247 whole entry): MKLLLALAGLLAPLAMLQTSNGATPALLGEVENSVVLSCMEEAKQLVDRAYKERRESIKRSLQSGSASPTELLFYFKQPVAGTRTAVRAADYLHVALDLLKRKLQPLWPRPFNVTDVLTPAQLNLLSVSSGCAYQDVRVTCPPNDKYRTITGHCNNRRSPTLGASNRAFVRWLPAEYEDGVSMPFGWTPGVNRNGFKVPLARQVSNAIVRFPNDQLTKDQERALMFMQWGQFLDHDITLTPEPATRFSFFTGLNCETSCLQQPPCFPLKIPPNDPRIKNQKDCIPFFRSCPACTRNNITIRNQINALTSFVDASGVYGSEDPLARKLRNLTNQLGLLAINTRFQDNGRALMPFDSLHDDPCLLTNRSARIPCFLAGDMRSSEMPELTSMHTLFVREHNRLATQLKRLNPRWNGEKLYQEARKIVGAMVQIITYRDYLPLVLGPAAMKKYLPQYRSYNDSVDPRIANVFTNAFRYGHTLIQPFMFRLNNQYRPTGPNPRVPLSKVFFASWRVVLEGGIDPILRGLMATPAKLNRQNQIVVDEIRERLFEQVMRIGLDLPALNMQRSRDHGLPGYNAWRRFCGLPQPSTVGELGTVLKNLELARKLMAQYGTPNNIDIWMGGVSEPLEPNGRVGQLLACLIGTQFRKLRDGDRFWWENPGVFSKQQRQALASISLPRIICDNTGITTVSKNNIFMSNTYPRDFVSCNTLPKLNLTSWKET

[4] = Plasma concentration in human MPO transgenic thioglycollate-induced peritonitis mouse model at 30 mg/kg, po measured after 6 hrs by LC/MS analysis; assay type: ADME, organism-based

## Nc1cc(Cc2ccccc2)c2nn[nH]c2n1
[1]
  Kd: 0.032 µM
[2]
  inhibition (INH): Not Active
[3]
  Papp: 427 nm/s
Thyroid peroxidase
  IC50: 2.2 µM
Myeloperoxidase
  IC50: 9.5 µM
[4]
  concentration at 6 h: 26 µM
